Test results: publication PMC9297786 (Molecular Oncology, 2022)

These compounds were tested on K562 (assay: cells). Conditions: 48 h; inhibitor.
Design: MTT cell growth inhibition assay, absorbance at 490 nm
Procedure: Exponential‐phase cells were seeded into 96‐well plates at a density of 2 × 10^4 cells per well in complete medium. After 24 h, cells were treated with drugs at indicated concentrations and incubated for 48 h. Fresh medium containing 20 μL MTT solution (5 mg·mL^−1) was then added to each well. Then plates were incubated for another 4 h at 37 °C. After removing the medium, 150 μL DMSO was added to each well. The absorbance was recorded at 490 nm in the microplate reader and the inhibition ratio (I%) was calculated. The cell growth assay was conducted as described previously. K562 cells were cultured in IMDM containing 10% fetal bovine serum, 100 U·mL^−1 penicillin and 100 U·mL^−1 streptomycin. […] MEG‐01 cells were cultured in DMEM containing 10% fetal bovine serum, 100 U·mL^−1 penicillin and 100 U·mL^−1 streptomycin. […] Cells were grown at 37 °C in a humidified atmosphere with 5% CO2. […] To identify an EPHB4‐specific inhibitor with a potential of rapid translation into clinic, a pool of clinically approved TKIs and compounds was screened in this study (Fig. S2 and Table S4).
In the case of `CN1CC[C@]23c4c5ccc(O)c4O[C@H]2[C@@H](O)C=C[C@H]3[C@H]1C5` [morphine], the “Inhibition rate (%, 10 μM)” value is reported as -46.72%.

Same assay, conditions: Homo sapiens, K562, 48 h, read-out: Inhibition rate (%, 10 μM)
With `COc1cc2c(Nc3ccc(Br)cc3F)ncnc2cc1OCC1CCN(C)CC1` [vandetanib, N‐(4‐bromo‐2‐fluorophenyl)‐6‐methoxy‐7‐[(1‐methylpiperidin‐4‐yl)methoxy]quinazolin‐4‐amine] the inhibition at 10 µM was 99.7%. `COc1ccc(C[C@H]2COC(=O)[C@@H]2Cc2ccc(O[C@@H]3O[C@H](CO)[C@@H](O)[C@H](O)[C@H]3O)c(OC)c2)cc1OC` [arctiin] was tested, and the inhibition at 10 µM was -62.6%. Work on `COc1cc2c(cc1OC)[C@@H]1Cc3ccc(OC)c(OC)c3CN1CC2` [tetrahydropalmatine] yielded an inhibition at 10 µM of -83.4%. With `CN1CCC(=C2c3ccccc3C=Cc3ccccc32)CC1` [cyproheptadine] the inhibition at 10 µM was -38.4%. `Cc1ccnc2c1NC(=O)c1cccnc1N2C1CC1` [nevirapine] showed an inhibition at 10 µM of -47%. For `COc1cc2nc(N3CCN(C(=O)C4COc5ccccc5O4)CC3)nc(N)c2cc1OC` (centres unmarked) [doxazosin], the inhibition at 10 µM was -84.5%. With `Cc1cn(-c2cc(NC(=O)c3ccc(C)c(Nc4nccc(-c5cccnc5)n4)c3)cc(C(F)(F)F)c2)cn1` [nilotinib] the inhibition at 10 µM was 71.7%. Work on `CCCCc1nc(Cl)c(CO)n1Cc1ccc(-c2ccccc2-c2nnn[nH]2)cc1` [losartan] yielded an inhibition at 10 µM of -72.9%. `CC(NC(C)(C)C)C(=O)c1cccc(Cl)c1` (centres unmarked) [bupropion] showed an inhibition at 10 µM of -48.5%. `Cc1cc(O)c2c(c1)C(=O)c1cc(O)cc(O)c1C2=O` [emodin] gave an inhibition at 10 µM of 6.9%. Work on `COc1cc2nc(N(C)CCCNC(=O)C3CCCO3)nc(N)c2cc1OC` (centres unmarked) [alfuzosin] yielded an inhibition at 10 µM of -37.2%. `CC(C)NCC(O)c1ccccc1Cl` (centres unmarked) [clorprenaline] showed an inhibition at 10 µM of -36.2%. In the case of `CCN(CC)CCNC(=O)c1c(C)[nH]c(/C=C2\C(=O)Nc3ccc(F)cc32)c1C` [sunitinib], the inhibition at 10 µM is reported as 73.5%. Work on `CC(Cc1ccc(O)cc1)NCC(O)c1cc(O)cc(O)c1` (centres unmarked) [fenoterol] yielded an inhibition at 10 µM of -62%. For `Cc1nnc(C(C)C)n1[C@@H]1C[C@H]2CC[C@@H](C1)N2CC[C@H](NC(=O)C1CCC(F)(F)CC1)c1ccccc1` [maraviroc], the inhibition at 10 µM was -56.3%. In the case of `CNC(=O)c1cc(Oc2ccc(NC(=O)Nc3ccc(Cl)c(C(F)(F)F)c3)cc2)ccn1` [sorafenib], the inhibition at 10 µM is reported as 73.4%. Work on `Cc1cc2c(s1)Nc1ccccc1N=C2N1CCN(C)CC1` [olanzapine] yielded an inhibition at 10 µM of -53.5%. Compound `NC12CC3CC(CC(C3)C1)C2` [amantadine] has an inhibition at 10 µM of -58.8%. `CC(C)(C)NCC(O)c1ccc(O)c(CO)c1` (centres unmarked) [salbutamol] showed an inhibition at 10 µM of -65.8%.

Same assay, conditions: Homo sapiens, K562, 48 h; read-out: Inhibition rate (%, 10 μM)
`COc1cc2c(cc1OC)[C@@]13CCN4CC5=CCO[C@H]6CC(=O)N2[C@H]1[C@H]6[C@H]5C[C@H]43` [brucine] showed an inhibition at 10 µM of -63.5%.

The compounds below were run against T1, ephrin type‐B receptor 4 (EPHB4) (Homo sapiens, UniProt P54760) (assay: Kinase‐Glo Plus luminescence kinase assay; SPR binding also measured). Conditions: not given.
T1 construct: EPHB4 kinase (Carna Biosciences)
T1 sequence (P54760 16-987): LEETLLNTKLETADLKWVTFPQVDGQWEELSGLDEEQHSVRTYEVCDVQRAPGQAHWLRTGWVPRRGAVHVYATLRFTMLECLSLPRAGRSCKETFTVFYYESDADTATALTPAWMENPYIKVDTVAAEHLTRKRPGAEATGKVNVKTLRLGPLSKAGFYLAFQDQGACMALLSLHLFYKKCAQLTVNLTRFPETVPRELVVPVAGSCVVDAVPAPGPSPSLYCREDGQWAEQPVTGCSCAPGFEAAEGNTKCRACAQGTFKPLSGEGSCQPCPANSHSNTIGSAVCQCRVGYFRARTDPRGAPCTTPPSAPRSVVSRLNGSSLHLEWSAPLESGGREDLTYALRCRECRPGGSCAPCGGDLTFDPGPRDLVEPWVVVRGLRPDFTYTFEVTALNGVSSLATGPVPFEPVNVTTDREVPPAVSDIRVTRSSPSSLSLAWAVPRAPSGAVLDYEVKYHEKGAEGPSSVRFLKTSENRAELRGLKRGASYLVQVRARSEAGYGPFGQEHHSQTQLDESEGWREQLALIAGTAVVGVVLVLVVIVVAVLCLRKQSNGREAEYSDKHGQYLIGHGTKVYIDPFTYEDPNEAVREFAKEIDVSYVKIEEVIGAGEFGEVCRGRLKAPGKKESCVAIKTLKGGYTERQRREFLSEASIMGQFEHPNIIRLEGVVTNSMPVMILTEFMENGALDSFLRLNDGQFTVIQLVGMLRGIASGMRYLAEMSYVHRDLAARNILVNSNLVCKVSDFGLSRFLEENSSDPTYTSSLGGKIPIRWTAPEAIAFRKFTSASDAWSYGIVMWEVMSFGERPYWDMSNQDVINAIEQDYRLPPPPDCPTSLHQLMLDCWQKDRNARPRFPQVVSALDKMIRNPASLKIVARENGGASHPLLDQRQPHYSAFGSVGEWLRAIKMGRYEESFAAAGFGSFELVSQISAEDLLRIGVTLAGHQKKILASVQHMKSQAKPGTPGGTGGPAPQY
Format: biochemical
Source text: Kinase‐Glo Plus luminescence kinase assay; SPR binding also measured on ephrin type‐B receptor 4 (EPHB4) | […]
For `Cc1ccc(C(=O)Nc2cccc(C(F)(F)F)c2)cc1Nc1nc(-c2cccnc2)nc2c1cnn2C` [NVP‐BHG712], the IC50 was 0.349 µM.

Each compound was assayed on H9 cells (assay: cells). Conditions: Homo sapiens, H9, 48 h.
Design: MTT cell growth inhibition after 48 h
Procedure: (§1) Exponential‐phase cells were seeded into 96‐well plates at a density of 2 × 10^4 cells per well in complete medium. After 24 h, cells were treated with drugs at indicated concentrations and incubated for 48 h. Fresh medium containing 20 μL MTT solution (5 mg·mL^−1) was then added to each well. Then plates were incubated for another 4 h at 37 °C. After removing the medium, 150 μL DMSO was added to each well. The absorbance was recorded at 490 nm in the microplate reader and the inhibition ratio (I%) was calculated. The cell growth assay was conducted as described previously. […] To identify an EPHB4‐specific inhibitor with a potential of rapid translation into clinic, a pool of clinically approved TKIs and compounds was screened in this study (Fig. S2 and Table S4).
`COc1cc2c(Nc3ccc(Br)cc3F)ncnc2cc1OCC1CCN(C)CC1` [vandetanib, N‐(4‐bromo‐2‐fluorophenyl)‐6‐methoxy‐7‐[(1‐methylpiperidin‐4‐yl)methoxy]quinazolin‐4‐amine] was tested, and the IC50 was 11.2 ± 1.08 µM.

What follows are compounds tested on MEG-01 cells (assay: cells). Conditions: Homo sapiens, MEG-01, 48 h.
Design: MTT cell growth inhibition after 48 h
Procedure: as §1
Work on `COc1cc2c(Nc3ccc(Br)cc3F)ncnc2cc1OCC1CCN(C)CC1` [vandetanib, N‐(4‐bromo‐2‐fluorophenyl)‐6‐methoxy‐7‐[(1‐methylpiperidin‐4‐yl)methoxy]quinazolin‐4‐amine] yielded an IC50 of 1.46 ± 1.07 µM.

Each compound was assayed on K562 (assay: cells). Conditions: Homo sapiens, K562, 48 h.
Design: MTT cell growth inhibition after 48 h
Procedure: as §1
Work on `COc1cc2c(Nc3ccc(Br)cc3F)ncnc2cc1OCC1CCN(C)CC1` [vandetanib, N‐(4‐bromo‐2‐fluorophenyl)‐6‐methoxy‐7‐[(1‐methylpiperidin‐4‐yl)methoxy]quinazolin‐4‐amine] yielded an IC50 of 2.18 ± 1.07 µM.

Each compound was assayed on K562 (assay: cells). Conditions: Homo sapiens, K562, 48 h; read-out: IC50 (uM) K562-WT.
Design: MTT cell viability of wild-type K562 beside EPHB4 mutant sublines, 48 h
Procedure: Exponential‐phase cells were seeded into 96‐well plates at a density of 2 × 10^4 cells per well in complete medium. After 24 h, cells were treated with drugs at indicated concentrations and incubated for 48 h. Fresh medium containing 20 μL MTT solution (5 mg·mL^−1) was then added to each well. Then plates were incubated for another 4 h at 37 °C. After removing the medium, 150 μL DMSO was added to each well. The absorbance was recorded at 490 nm in the microplate reader and the inhibition ratio (I%) was calculated. The cell growth assay was conducted as described previously. […] Similar results were shown for M4 mutants. […] (a) Three‐dimensional structure graph; (b) binding region; (c) plane schematic of interaction between the receptor and ligand. (B) Genomic position of sgRNAs and PAMs for EPHB4 knock‐out line, PAM site was colored in red. (C) The protein expression of EPHB4 in K562, K562‐Crispr‐1 and K562‐Crispr‐2 cells determined by western blot assay. P‐values were generated by one‐way ANOVA using the Tukey test for multiple comparisons. **P < 0.01 versus the K562 group. […] P‐values were generated by one‐way ANOVA using the Tukey test for multiple comparisons. *P < 0.05 versus the K562 group. (E) Five point‐mutation (M1–M5) and their corresponding wild‐type (WT) sequences. The point‐mutations of EPHB4: M1, I14A, G15A; M2, M83A, N85A, G86A; M3, A87Del; M4, S90A, F91A; M5, R93A, L94A. […]
With `COc1cc2c(Nc3ccc(Br)cc3F)ncnc2cc1OCC1CCN(C)CC1` [vandetanib, N‐(4‐bromo‐2‐fluorophenyl)‐6‐methoxy‐7‐[(1‐methylpiperidin‐4‐yl)methoxy]quinazolin‐4‐amine] the IC50 was 2.05 ± 1.08 µM.
